Measured values from PMC7904550, “Application of grouping and read-across for the evaluation of parabens of different chain lengths with a particular focus on endocrine properties” (Archives of Toxicology, 2021).

Experiments:
[1] = Octanol–water partition coefficient (Log Kow); assay type: physicochemical; settings: mean; OECD TG 107 and OECD TG 117
Description: Generally, these parabens have very similar physico-chemical properties.

rats [2] = settings: rat, in vivo; cited from earlier work
Wistar rats [3] = test: Prenatal developmental toxicity study (OECD TG 414); assay type: in vivo, rat; settings: for NOAEL, developmental toxicity: OECD 414 v 2001, oral gavage
Description: Healthy and specific pathogen-free male and female (non-pregnant and nulliparous) Wistar Crl: WI(Han) rats were obtained from Charles River Laboratories (Germany). […] Upon arrival at BSL BIOSERVICE, the animals underwent an acclimatisation period of at least 5 days, and they were approximately 15–16 weeks old at the onset of the treatment period.

rats [4] = settings: key studies Gazin et al. 2013, Pouliot 2013; ref SCCS 2013; EMA 2015; cited from earlier work
Wistar rats [5] = test: Reproductive toxicity screening study (OECD TG 421); assay type: in vivo, rat; settings: for NOAEL, reproductive toxicity: OECD 421 v 2016 oral gavage (& historical OECD 422 feeding study)
Protocol: Healthy and specific pathogen-free male and female (non-pregnant and nulliparous) Wistar Crl: WI(Han) rats were obtained from Charles River Laboratories (Germany). The animals were housed in an air-conditioned room (temperature: 22 ± 3 °C; relative humidity: 55 ± 10%; artificial light, light–dark cycle: 12 h–12 h; air change: 10 times/h). Housing was in groups of 5 animals/sex/cage in individually ventilated Type IV polysulphone cages on Altromin saw fibre bedding with free access to both Altromin 1324 maintenance diet for rats and mice and tap water. Upon arrival at BSL BIOSERVICE, the animals underwent an acclimatisation period of at least 5 days, and they were approximately 15–16 weeks old at the onset of the treatment period. […]

Wistar rats [6] = test: Higher-tier studies taken together (OECD TG 408, 414, 421/422, 443): NOAEL
Protocol: All in vivo studies were conducted as oral gavage studies, selecting the oral route as most appropriate route of administration to reflect the worst-case exposure scenario. […] The OECD TG 443 included mating of first generation (F1) offspring to produce a second generation (F2), and the DIT and DNT cohorts.

rats [7] = settings: rat, in vivo; cited from earlier work; remark: listed apart in the source

CCCOC(=O)c1ccc(O)cc1 [Propyl paraben, Propyl 4-hydroxybenzoate]
Log Kow [1]: 2.8 (mean; OECD TG 107 and OECD TG 117)
Skin irritation/skin corrosion classification (rats [2]): Not irritating (read-across)
NOAEL, developmental toxicity (Wistar rats [3]): NOAEL: 1000 (OECD 414; v 2001) mg/kg body weight/day
NOAEL, developmental toxicity (Wistar rats [3]; listed as propyl paraben): 1000 mg/kg body weight/day
Gestation length (Wistar rats [3]; OECD TG 414): n.a. / NAE
NOAEL: No. of foetal deaths; viable foetuses (Wistar rats [3]; OECD TG 414): 1000 mg/kg bw/day
No. of implantations, corpora lutea (Wistar rats [3]; OECD TG 414): NAE / NAE
No. of live births (Wistar rats [3]; OECD TG 414): NAE / NAE
Postimplantation loss (Wistar rats [3]; OECD TG 414): NAE / NAE
Pre-implantation loss (Wistar rats [3]; OECD TG 414): NAE / NAE
Uterus weight (with cervix) (Wistar rats [3]; OECD TG 414): NAE / NAE
Thyroid HP (Wistar rats [3]; dams): NAE / NAE (dams)
Thyroid stimulating hormone level (Wistar rats [3]; dams): NAE / NAE (dams)
Thyroid weight (Wistar rats [3]; dams): NAE / NAE (dams)
Triiodothyronine / thyroxine level (Wistar rats [3]; dams): NAE / NAE (dams)
Anogenital distance (Wistar rats [3]; foetus): NAE / NAE
Foetal development (Wistar rats [3]; foetus): NAE / NAE
Litter size (Wistar rats [3]; foetus): NAE / NAE
No. of foetal deaths; viable foetuses (Wistar rats [3]; foetus): NAE / NAE
Presence of anomalies (external, visceral, skeletal) (Wistar rats [3]; foetus): NAE / NAE
Treatment-related effects in dams or pups (Wistar rats [3]; implantation throughout pregnancy): No treatment-related effects
NOAEL (rats [4]): 1000 mg/kg bw/day
NOAEL, reproductive toxicity (Wistar rats [5]): NOAEL: 1000 (OECD 421; v 2016 & OECD 422 [b]) mg/kg body weight/day
NOAEL, reproductive toxicity (Wistar rats [5]; listed as propyl paraben): 1000 mg/kg body weight/day
Treatment-related effects in parental animals or pups (Wistar rats [5]; OECD TG 421): no treatment-related effects
Accessory sex organs HP (Wistar rats [5]; P0, F1): n. a. / NAE
Anogenital distance (Wistar rats [5]; P0, F1): n. a. / NAE
Coagulating gland weight (Wistar rats [5]; P0, F1): n. a. / NAE
Dystocia (Wistar rats [5]; P0, F1): n. a. / NAE
Epididymis HP (Wistar rats [5]; P0, F1): n. a. / NAE
Epididymis weight (Wistar rats [5]; P0, F1): n. a. / NAE
Fertility (Wistar rats [5]; P0, F1): n. a. / NAE
Foetal development (Wistar rats [5]; P0, F1): n. a. / NAE
Gestation length (Wistar rats [5]; P0, F1): n. a. / NAE
Litter size (Wistar rats [5]; P0, F1): n. a. / NAE
Litter viability (Wistar rats [5]; P0, F1): n. a. / NAE
Nipple development (Wistar rats [5]; P0, F1): n. a. / NAE
No. of implantations, corpora lutea (Wistar rats [5]; P0, F1): n. a. / NAE
No. of live births (Wistar rats [5]; P0, F1): n. a. / NAE
Oestrus cyclicity (Wistar rats [5]; P0, F1): n. a. / NAE
Ovary HP (Wistar rats [5]; P0, F1): n. a. / NAE
Postimplantation loss (Wistar rats [5]; P0, F1): n. a. / NAE
Pre-implantation loss (Wistar rats [5]; P0, F1): n. a. / NAE
Presence of anomalies (external, visceral, skeletal) (Wistar rats [5]; P0, F1): n. a. / NAE
Prostate HP (Wistar rats [5]; P0, F1): n. a. / NAE
Prostate weight (Wistar rats [5]; P0, F1): n. a. / NAE
Reproduction (Wistar rats [5]; P0, F1): n. a. / NAE
Seminal vesicles weight (Wistar rats [5]; P0, F1): n. a. / NAE
Testis HP (Wistar rats [5]; P0, F1): n. a. / NAE
Testis weight (Wistar rats [5]; P0, F1): n. a. / NAE
Thyroid stimulating hormone level (Wistar rats [5]; P0, F1): n. a. / NAE
Time to mating (Wistar rats [5]; P0, F1): n. a. / NAE
Triiodothyronine / thyroxine level (Wistar rats [5]; P0, F1): n. a. / NAE
Vaginal smears (Wistar rats [5]; P0, F1): n. a. / NAE
NOAEL, repeated-dose toxicity and DART, all higher-tier studies (Wistar rats [6]; limit dose, oral gavage): 1000 mg/kg bw/day
NOAEL: Accessory sex organs HP (Wistar rats [6]; over all higher-tier studies): 1000 / 1000 mg/kg bw/day
NOAEL: Adrenals HP (Wistar rats [6]; over all higher-tier studies): 1000 / 1000 mg/kg bw/day
NOAEL: Adrenals weight (Wistar rats [6]; over all higher-tier studies): 1000 / 1000 mg/kg bw/day
NOAEL: Age at balano-preputial separation (Wistar rats [6]; over all higher-tier studies): 1000 / 1000 mg/kg bw/day
NOAEL: Age at vaginal opening (Wistar rats [6]; over all higher-tier studies): 1000 / 1000 mg/kg bw/day
NOAEL: Anogenital distance (Wistar rats [6]; over all higher-tier studies): 1000 / 1000 mg/kg bw/day
NOAEL: Auditory startle (Wistar rats [6]; over all higher-tier studies): 1000 / 1000 mg/kg bw/day
NOAEL: Brain HP (Wistar rats [6]; over all higher-tier studies): 1000 / 1000 mg/kg bw/day
NOAEL: Brain morphometric evaluation (Wistar rats [6]; over all higher-tier studies): 1000 / 1000 mg/kg bw/day
NOAEL: Brain weight (Wistar rats [6]; over all higher-tier studies): 1000 / 1000 mg/kg bw/day
NOAEL: Cervix HP (Wistar rats [6]; over all higher-tier studies): 1000 / 1000 mg/kg bw/day
NOAEL: Coagulating gland HP (Wistar rats [6]; over all higher-tier studies): 1000 / 1000 mg/kg bw/day
NOAEL: Coagulating gland weight (Wistar rats [6]; over all higher-tier studies): 1000 / 1000 mg/kg bw/day
NOAEL: Colloid area (thyroid HP) (Wistar rats [6]; over all higher-tier studies): 1000 / 1000 mg/kg bw/day
NOAEL: Dystocia (Wistar rats [6]; over all higher-tier studies): 1000 / 1000 mg/kg bw/day
NOAEL: Epididymis HP (Wistar rats [6]; over all higher-tier studies): 1000 / 1000 mg/kg bw/day
NOAEL: Epididymis weight (Wistar rats [6]; over all higher-tier studies): 1000 / 1000 mg/kg bw/day
NOAEL: Fertility (Wistar rats [6]; over all higher-tier studies): 1000 / 1000 mg/kg bw/day
NOAEL: Foetal development (Wistar rats [6]; over all higher-tier studies): 1000 / 1000 mg/kg bw/day
NOAEL: Functional observation battery (Wistar rats [6]; over all higher-tier studies): 1000 / 1000 mg/kg bw/day
NOAEL: Genital abnormalities (Wistar rats [6]; over all higher-tier studies): 1000 / 1000 mg/kg bw/day
NOAEL: Gestation length (Wistar rats [6]; over all higher-tier studies): 1000 / 1000 mg/kg bw/day
NOAEL: Litter / pup weight (Wistar rats [6]; over all higher-tier studies): 1000 / 1000 mg/kg bw/day
NOAEL: Litter size (Wistar rats [6]; over all higher-tier studies): 1000 / 1000 mg/kg bw/day
NOAEL: Litter viability (Wistar rats [6]; over all higher-tier studies): 1000 / 1000 mg/kg bw/day
NOAEL: Liver weight (Wistar rats [6]; over all higher-tier studies): 1000 / 1000 mg/kg bw/day
NOAEL: Mammary gland HP; females (Wistar rats [6]; over all higher-tier studies): 1000 / 1000 mg/kg bw/day
NOAEL: Mammary gland HP; males (Wistar rats [6]; over all higher-tier studies): 1000 / 1000 mg/kg bw/day
NOAEL: Motor activity (Wistar rats [6]; over all higher-tier studies): 1000 / 1000 mg/kg bw/day
NOAEL: Nipple development (Wistar rats [6]; over all higher-tier studies): 1000 / 1000 mg/kg bw/day
NOAEL: No. of implantations, corpora lutea (Wistar rats [6]; over all higher-tier studies): 1000 / 1000 mg/kg bw/day
NOAEL: No. of live births (Wistar rats [6]; over all higher-tier studies): 1000 / 1000 mg/kg bw/day
NOAEL: No. of ovarian follicles (Wistar rats [6]; over all higher-tier studies): 1000 / 1000 mg/kg bw/day
NOAEL: Oestrus cyclicity (Wistar rats [6]; over all higher-tier studies): 1000 / 1000 mg/kg bw/day
NOAEL: Offspring: learning & memory (Wistar rats [6]; over all higher-tier studies): 1000 / 1000 mg/kg bw/day
NOAEL: Ovary HP (Wistar rats [6]; over all higher-tier studies): 1000 / 1000 mg/kg bw/day
NOAEL: Ovary weight (Wistar rats [6]; over all higher-tier studies): 1000 / 1000 mg/kg bw/day
NOAEL: Oviduct HP (Wistar rats [6]; over all higher-tier studies): 1000 / 1000 mg/kg bw/day
NOAEL: Pituitary HP (Wistar rats [6]; over all higher-tier studies): 1000 / 1000 mg/kg bw/day
NOAEL: Pituitary weight (Wistar rats [6]; over all higher-tier studies): 1000 / 1000 mg/kg bw/day
NOAEL: Postimplantation loss (Wistar rats [6]; over all higher-tier studies): 1000 / 1000 mg/kg bw/day
NOAEL: Pre-implantation loss (Wistar rats [6]; over all higher-tier studies): 1000 / 1000 mg/kg bw/day
NOAEL: Presence of anomalies (Wistar rats [6]; over all higher-tier studies): 1000 / 1000 mg/kg bw/day
NOAEL: Prostate HP (Wistar rats [6]; over all higher-tier studies): 1000 / 1000 mg/kg bw/day
NOAEL: Prostate weight (Wistar rats [6]; over all higher-tier studies): 1000 / 1000 mg/kg bw/day
NOAEL: Pup development (Wistar rats [6]; over all higher-tier studies): 1000 / 1000 mg/kg bw/day
NOAEL: Reproduction (Wistar rats [6]; over all higher-tier studies): 1000 / 1000 mg/kg bw/day
NOAEL: Seminal vesicles HP (Wistar rats [6]; over all higher-tier studies): 1000 / 1000 mg/kg bw/day
NOAEL: Seminal vesicles weight (Wistar rats [6]; over all higher-tier studies): 1000 / 1000 mg/kg bw/day
NOAEL: Sperm morphology (Wistar rats [6]; over all higher-tier studies): 1000 / 1000 mg/kg bw/day
NOAEL: Sperm motility (Wistar rats [6]; over all higher-tier studies): 1000 / 1000 mg/kg bw/day
NOAEL: Sperm numbers (Wistar rats [6]; over all higher-tier studies): 1000 / 1000 mg/kg bw/day
NOAEL: Testis HP (Wistar rats [6]; over all higher-tier studies): 1000 / 1000 mg/kg bw/day
NOAEL: Testis weight (Wistar rats [6]; over all higher-tier studies): 1000 / 1000 mg/kg bw/day
NOAEL: Thyroid HP (Wistar rats [6]; over all higher-tier studies): 1000 / 1000 mg/kg bw/day
NOAEL: Thyroid stimulating hormone level (Wistar rats [6]; over all higher-tier studies): 1000 / 1000 mg/kg bw/day
NOAEL: Thyroid weight (Wistar rats [6]; over all higher-tier studies): 1000 / 1000 mg/kg bw/day
NOAEL: Time to mating (Wistar rats [6]; over all higher-tier studies): 1000 / 1000 mg/kg bw/day
NOAEL: Triiodothyronine / thyroxine level (Wistar rats [6]; over all higher-tier studies): 1000 / 1000 mg/kg bw/day
NOAEL: Uterus HP (with cervix) (Wistar rats [6]; over all higher-tier studies): 1000 / 1000 mg/kg bw/day
NOAEL: Uterus weight (with cervix) (Wistar rats [6]; over all higher-tier studies): 1000 / 1000 mg/kg bw/day
NOAEL: Vagina HP (Wistar rats [6]; over all higher-tier studies): 1000 / 1000 mg/kg bw/day
NOAEL: Vaginal smears (Wistar rats [6]; over all higher-tier studies): 1000 / 1000 mg/kg bw/day
Eye irritation/eye corrosion classification (rats [7]): Not irritating [c] (OECD 437 and 405; 2012)
